Source: patent US20080214445A1, “Method of Treating a Solid Tumor Disease Comprising Administering a Combination Comprising Imatinib and an Inhibitor of an Efflux Pump Active at the Blood Brain Barrier or Demethyl Imatinib” (priority 2005, published 2008)

Assays:
[1] = Blood and brain pharmacokinetics in Hanover Wistar rats after intravenous [14C]STI571 with or without PSC833
Experimental: (§1) Blood, plasma, brain are collected for each animal.
(§2) All samples are analyzed for total radioactivity by liquid scintillation counting (LSC). In brief, 50 μL blood samples are successively mixed and incubated with 0.5 mL Soluene 350-isopropanol 1:1 (v/v), 0.2 mL H2O2 30% (overnight), 0.5 mL HCl 2N (20 min) and 5 mL IrgaSafe (Packard) (overnight). 50 μL plasma samples are successively mixed and incubated with 0.5 mL Soluene 350-isopropanol 1:1 (v/v) (overnight), 0.5 mL HCl 2N (20 min) and 5 mL IrgaSafe (overnight). 250 μL brain homogenate samples are treated by 2 mL Soluene 350 (overnight), 0.5 mL HCl 2N (20 min) and 17.5 mL Irgasafe (overnight). All samples are counted in Tricarb liquid scintillation analyzers (Packard).
(§3) All blood samples are spiked with 100 μL of water for hemolysis whereas all other samples are directly analyzed. […] The organic layer is separated and evaporated in a vacuum centrifuge. The residues are dissolved in 250 μL of acetonitrile-water (30:70 v/v) followed by 75 μl of n-hexane. […] The effluent is monitored by an UV-detector set at 270 nm.

[2] = FVB wild-type mice; co-perfusion of valspodar 10 μM with imatinib 0.5 μM
Rat C6 glioma cells = assay: Accumulation of CGP74588 into rat C6 glioma cells; format: cell-based; conditions: for average fold increase of CGP74588 accumulation: 15 min pre-incubation, 1 min incubation with CGP74588, rat C6 cells
Experimental: Rat C6 glioma cells are used as a model for glioma in in vitro or in vivo studies, to investigate the effect of this combination on cell proliferation.
Rat C6 glioma cells are maintained in high glucose Dulbecco's modified medium supplemented with 10% fetal calf serum and […] L-Glutamine in a humidified atmosphere of 95% air-5% CO2. All accumulation assays are conducted on cultures at confluence. For this purpose, the cells are seeded on 24-well plates at a density of 100×10^3 cells/cm^2 and left to proliferate in culture medium for 48 h.
For competition assays, the cultures are pre-incubated with various concentrations of the different competitors for 15 min. […] The cellular accumulation of 1.5 μM CGP74588 is also studied in C6 cells that have been pre-incubated with hydroxyurea (1, 10, 100 or 1000 μM) for 48 h.

BCRP = molecular target: T1, BCRP (Homo sapiens, UniProt Q9UNQ0); assay: BCRP efflux pump inhibition / transport
T1 sequence (Q9UNQ0 1-655): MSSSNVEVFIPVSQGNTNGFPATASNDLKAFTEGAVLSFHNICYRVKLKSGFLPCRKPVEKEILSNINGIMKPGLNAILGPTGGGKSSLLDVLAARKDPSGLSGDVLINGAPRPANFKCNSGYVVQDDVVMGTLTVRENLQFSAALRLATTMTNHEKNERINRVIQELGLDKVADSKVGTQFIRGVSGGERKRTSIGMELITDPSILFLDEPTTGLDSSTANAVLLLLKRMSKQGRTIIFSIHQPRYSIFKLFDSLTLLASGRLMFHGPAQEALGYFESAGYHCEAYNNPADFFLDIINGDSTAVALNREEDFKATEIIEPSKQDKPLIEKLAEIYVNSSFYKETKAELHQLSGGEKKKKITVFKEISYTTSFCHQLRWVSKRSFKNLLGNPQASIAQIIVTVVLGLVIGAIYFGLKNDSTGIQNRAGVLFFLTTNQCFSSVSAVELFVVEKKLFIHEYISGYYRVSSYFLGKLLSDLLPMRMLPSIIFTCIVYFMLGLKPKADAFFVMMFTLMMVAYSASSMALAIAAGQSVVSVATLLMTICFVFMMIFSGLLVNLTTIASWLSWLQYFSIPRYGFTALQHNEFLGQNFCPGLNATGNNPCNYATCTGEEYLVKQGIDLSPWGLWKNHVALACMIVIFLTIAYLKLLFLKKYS

[3] = tested on: P-glycoprotein and Breast-Cancer Resistance Protein (suggested by experiments in mdr1a1b(-/-) mice); assay: in vivo; conditions: FVB, mouse
in vivo = conditions: Hanover Wistar, rat, iv, 12.5 mg/kg
Experimental: as §1, §2, §3

[4] = Hanover Wistar, rat, in vivo, iv
Experimental: as §1, §2, §3

[5] = Concentration of STI571 in brain, Mean
[6] = Concentration of STI571 in brain, individual data

C/C=C/C[C@@H](C)C(=O)[C@H]1C(=O)N[C@@H](C(C)C)C(=O)N(C)CC(=O)N(C)[C@@H](CC(C)C)C(=O)N[C@@H](C(C)C)C(=O)N(C)[C@@H](CC(C)C)C(=O)N[C@@H](C)C(=O)N[C@H](C)C(=O)N(C)[C@@H](CC(C)C)C(=O)N(C)[C@@H](CC(C)C)C(=O)N(C)[C@@H](C(C)C)C(=O)N1C [valspodar, [3′-desoxy-3′-oxo-MeBmt]^1-[Val]^2-Ciclosporin A]
effect on the elimination slope of unchanged STI571 from brain to blood ([1]; 12.5 mg/kg STI571 and 10 mg/kg PSC833 i.v.): does not significantly modify
impact on the plasma pharmacokinetics of imatinib ([1]; valspodar 10 mg/kg i.v. with imatinib 12.5 mg/kg i.v.): no significant impact
effect on distribution of imatinib into the brain [2]: markedly enhance
average fold increase of CGP74588 accumulation (Rat C6 glioma cells; inhibitor 1 μM): 1.7 fold
average fold increase of CGP74588 accumulation (Rat C6 glioma cells; inhibitor 10 μM): 2.3 fold

Cc1ccc(NC(=O)c2ccc(CN3CCNCC3)cc2)cc1Nc1nccc(-c2cccnc2)n1 [CGP74588, N-{5-[4-(piperazino-methyl)-benzoylamido]-2-methylphenyl}-4-(3-pyridyl)-2-pyrimidine-amine]
BCRP inhibition (BCRP): not
transport by efflux pump (BCRP): dominated by BCRP
accumulation in rat C6 cells (Rat C6 glioma cells; CGP74588 0.5-50 μM): concentration dependant

Cl.Cl.Cl.O[C@@H](COc1cccc2ncccc12)CN1CCN(C2c3ccccc3[C@@H]3[C@H](c4ccccc42)C3(F)F)CC1 (stereo partly drawn) [zosuquidar, 1-[4-(1,1-difluor-1,1aR,6S,10bS-tetrahydrodibenzo[a,e]-cyclo-propa[c]cyclohepten-6-yl)piperazin-1-yl]-3-(chinolin-5-yloxy)-2(R)-propanol-trihydrochloride]
average fold increase of CGP74588 accumulation (Rat C6 glioma cells; inhibitor 1 μM): 1.7 fold
average fold increase of CGP74588 accumulation (Rat C6 glioma cells; inhibitor 10 μM): 2.3 fold

COc1cc2c(cc1OC)CN(CCc1ccc(NC(=O)c3cccc4c(=O)c5cccc(OC)c5[nH]c34)cc1)CC2 [elacridar]
average fold increase of CGP74588 accumulation (Rat C6 glioma cells; inhibitor 1 μM): 1.7 fold
average fold increase of CGP74588 accumulation (Rat C6 glioma cells; inhibitor 10 μM): 2.3 fold

Cc1ccc(NC(=O)c2ccc(CN3CCN(C)CC3)cc2)cc1Nc1nccc(-c2cccnc2)n1 [STI571, N-{5-[4-(4-methyl-piperazino-methyl)-benzoylamido]-2-methylphenyl}-4-(3-pyridyl)-2-pyrimidine-amine]
Km [3]: 5 to 10 µM
Cmax (in vivo): 893 ng/g
Tmax (in vivo): 15 min
concentration at 0.25 h (in vivo; [5]): 893 ng/g
concentration at 0.5 h (in vivo; [5]): 533 ng/g
concentration at 1 h (in vivo; [5]): 550 ng/g
concentration at 2 h (in vivo; [5]): 333 ng/g
concentration at 4 h (in vivo; [5]): 115 ng/g
concentration at 8 h (in vivo; [5]): 38 ng/g
concentration at 1 h (in vivo; [6]): 540 ng/g
concentration at 2 h (in vivo; [6]): 402 ng/g
concentration at 4 h (in vivo; [6]): 102 ng/g
concentration at 8 h (in vivo; [6]): 52 ng/g
time post dose at which brain Cmax is reached [4]: 15 min
